In brackets after ≈: the same amount, converted by molar mass. Activity calls are given as the source filed them. The rule behind the calls is not given here.
Assays:
Streptococcus pneumoniae [1] = experiment: Antibacterial activity against Streptococcus pneumoniae 994 expressing mef gene by NCCLS method; assay type: functional
Streptococcus pyogenes = experiment: Antibacterial activity against Streptococcus pyogenes 19615 by NCCLS method; assay type: functional
Haemophilus influenzae = experiment: Antibacterial activity against Haemophilus influenzae 38 by NCCLS method; assay type: functional
Moraxella catarrhalis = experiment: Antibacterial activity against Moraxella catarrhalis 8176 by NCCLS method; assay type: functional
Streptococcus pneumoniae [2] = experiment: Antibacterial activity against telethromycin-resistant Streptococcus pneumoniae 757 expressing erm gene by NCCLS method; assay type: functional
Streptococcus pneumoniae [3] = experiment: Antibacterial activity against telethromycin-resistant Streptococcus pneumoniae 162 expressing erm gene by NCCLS method; assay type: functional
Streptococcus pneumoniae [4] = experiment: Antibacterial activity against telethromycin-resistant Streptococcus pneumoniae 2840 expressing erm gene by NCCLS method; assay type: functional
Streptococcus pneumoniae [5] = experiment: Antibacterial activity against telethromycin-resistant Streptococcus pneumoniae 3489 expressing erm gene by NCCLS method; assay type: functional
Streptococcus pneumoniae [6] = experiment: Antibacterial activity against telethromycin-resistant Streptococcus pneumoniae B739 expressing erm gene by NCCLS method; assay type: functional
Streptococcus pneumoniae [7] = experiment: Antibacterial activity against telethromycin-resistant Streptococcus pneumoniae 3271 expressing erm gene by NCCLS method; assay type: functional
Streptococcus pneumoniae [8] = experiment: Antibacterial activity against telethromycin-resistant Streptococcus pneumoniae 217 expressing erm gene by NCCLS method; assay type: functional
Streptococcus pneumoniae [9] = experiment: Antibacterial activity against telethromycin-resistant Streptococcus pneumoniae 3488 expressing erm gene by NCCLS method; assay type: functional
Streptococcus pneumoniae [10] = experiment: Antibacterial activity against telethromycin-resistant Streptococcus pneumoniae AB14 expressing erm gene by NCCLS method; assay type: functional
Streptococcus pneumoniae [11] = experiment: Antibacterial activity against telethromycin-resistant Streptococcus pneumoniae 5099 expressing erm gene by NCCLS method; assay type: functional
Streptococcus pneumoniae [12] = experiment: Antibacterial activity against telethromycin-resistant Streptococcus pneumoniae 3390 expressing erm gene by NCCLS method; assay type: functional
Streptococcus pneumoniae [13] = experiment: Antibacterial activity against telethromycin-resistant Streptococcus pneumoniae 5051 expressing erm gene by NCCLS method; assay type: functional
Streptococcus pneumoniae [14] = experiment: Antibacterial activity against Streptococcus pneumoniae 3579 expressing erm gene infected in mouse systemic infection model; assay type: functional, organism-based
Streptococcus pneumoniae [15] = experiment: Antibacterial activity against Streptococcus pneumoniae 6303 by NCCLS method; assay type: functional
Streptococcus pneumoniae [16] = experiment: Antibacterial activity against Streptococcus pneumoniae 49619 by NCCLS method; assay type: functional
Streptococcus pneumoniae [17] = experiment: Antibacterial activity against Streptococcus pneumoniae 3579 expressing erm gene by NCCLS method; assay type: functional
Streptococcus pneumoniae [18] = experiment: Antibacterial activity against Streptococcus pneumoniae by NCCLS method; assay type: functional

SMILES | MIC (Streptococcus pneumoniae [1]) [µg/mL] | MIC (Streptococcus pyogenes) [µg/mL] | MIC (Haemophilus influenzae) [µg/mL] | MIC (Moraxella catarrhalis) [µg/mL] | MIC (Streptococcus pneumoniae [2]) [µg/mL] | MIC (Streptococcus pneumoniae [3]) [µg/mL] | MIC (Streptococcus pneumoniae [4]) [µg/mL] | MIC (Streptococcus pneumoniae [5]) [µg/mL] | MIC (Streptococcus pneumoniae [6]) [µg/mL] | MIC (Streptococcus pneumoniae [7]) [µg/mL] | MIC (Streptococcus pneumoniae [8]) [µg/mL] | MIC (Streptococcus pneumoniae [9]) [µg/mL] | MIC (Streptococcus pneumoniae [10]) [µg/mL] | MIC (Streptococcus pneumoniae [11]) [µg/mL] | MIC (Streptococcus pneumoniae [12]) [µg/mL] | MIC (Streptococcus pneumoniae [13]) [µg/mL] | Activity (Streptococcus pneumoniae [14]) | MIC (Streptococcus pneumoniae [15]) [µg/mL] | MIC (Streptococcus pneumoniae [16]) [µg/mL] | MIC (Streptococcus pneumoniae [17]) [µg/mL] | also measured
C=CCN(C)[C@H]1C[C@@H](C)O[C@@H](O[C@@H]2[C@@H](C)[C@H](OC(=O)Cc3ccccn3)[C@@H](C)C(=O)O[C@H](CC)[C@@]3(C)OC(=O)N(CCCCn4cnc(-c5ccco5)c4)[C@@H]3[C@@H](C)C(=O)[C@H](C)C[C@@]2(C)OC)[C@@H]1O | 0.125 (≈ 0.132 µM) | 0.03 (≈ 0.0316 µM) | < 0.06 | 0.25 (≈ 0.264 µM) | 1 (≈ 1.05 µM) | 4 (≈ 4.22 µM) | 2 (≈ 2.11 µM) | 2 (≈ 2.11 µM) | 2 (≈ 2.11 µM) | 2 (≈ 2.11 µM) | 1 (≈ 1.05 µM) | 0.5 (≈ 0.527 µM) | 0.25 (≈ 0.264 µM) | 0.25 (≈ 0.264 µM) | 0.5 (≈ 0.527 µM) | 0.25 (≈ 0.264 µM) | Active | 0.06 (≈ 0.0633 µM) | 0.03 (≈ 0.0316 µM) | 0.125 (≈ 0.132 µM) | –
C=CCN(C)[C@H]1C[C@@H](C)O[C@@H](O[C@@H]2[C@@H](C)[C@H](OC(=O)Cc3ccccn3)[C@@H](C)C(=O)O[C@H](CC)[C@@]3(C)OC(=O)N(CCCCn4cnc(-c5ccc(N)nc5)c4)[C@@H]3[C@@H](C)C(=O)[C@H](C)C[C@@]2(C)OC)[C@@H]1O | 0.125 (≈ 0.128 µM) | 2 (≈ 2.05 µM) | – | 0.125 (≈ 0.128 µM) | 0.06 (≈ 0.0616 µM) | 0.5 (≈ 0.513 µM) | 0.25 (≈ 0.257 µM) | 0.25 (≈ 0.257 µM) | 0.125 (≈ 0.128 µM) | 0.25 (≈ 0.257 µM) | 0.06 (≈ 0.0616 µM) | 0.03 (≈ 0.0308 µM) | 0.03 (≈ 0.0308 µM) | 0.03 (≈ 0.0308 µM) | 0.06 (≈ 0.0616 µM) | 0.03 (≈ 0.0308 µM) | Active | 0.06 (≈ 0.0616 µM) | 0.06 (≈ 0.0616 µM) | 0.25 (≈ 0.257 µM) | –
CC[C@H]1OC(=O)[C@H](C)C(=O)[C@H](C)[C@@H](O[C@@H]2O[C@H](C)C[C@H](N(C)C)[C@H]2O)[C@](C)(OC)C[C@@H](C)C(=O)[C@H](C)[C@H]2N(CCCCn3cnc(-c4cccnc4)c3)C(=O)O[C@]12C [TELITHROMYCIN] | 0.25 (≈ 0.308 µM) | 0.03 (≈ 0.0369 µM) | 1 (≈ 1.23 µM) | 0.25 (≈ 0.308 µM) | 32 (≈ 39.4 µM) | 64 (≈ 78.8 µM) | 64 (≈ 78.8 µM) | 64 (≈ 78.8 µM) | 64 (≈ 78.8 µM) | 64 (≈ 78.8 µM) | 4 (≈ 4.93 µM) | 8 (≈ 9.85 µM) | 8 (≈ 9.85 µM) | 8 (≈ 9.85 µM) | 8 (≈ 9.85 µM) | 4 (≈ 4.93 µM) | – | 0.03 (≈ 0.0369 µM) | 0.06 (≈ 0.0739 µM) | 0.25 (≈ 0.308 µM) | –
C=CCN(C)[C@H]1C[C@@H](C)O[C@@H](O[C@@H]2[C@@H](C)[C@H](OC(=O)Cc3cccnc3)[C@@H](C)C(=O)O[C@H](CC)[C@@]3(C)OC(=O)N(CCCCn4cnc5ncccc54)[C@@H]3[C@@H](C)C(=O)[C@H](C)C[C@@]2(C)OC)[C@@H]1O | 0.06 (≈ 0.0643 µM) | 0.06 (≈ 0.0643 µM) | 0.125 (≈ 0.134 µM) | 0.06 (≈ 0.0643 µM) | 0.5 (≈ 0.536 µM) | 1 (≈ 1.07 µM) | 0.5 (≈ 0.536 µM) | 0.5 (≈ 0.536 µM) | 0.5 (≈ 0.536 µM) | 1 (≈ 1.07 µM) | 0.5 (≈ 0.536 µM) | 0.25 (≈ 0.268 µM) | 0.125 (≈ 0.134 µM) | 0.125 (≈ 0.134 µM) | 0.25 (≈ 0.268 µM) | 0.25 (≈ 0.268 µM) | Active | 0.06 (≈ 0.0643 µM) | 0.03 (≈ 0.0321 µM) | 1 (≈ 1.07 µM) | –
CC[C@H]1OC(=O)[C@H](C)[C@@H](O[C@H]2C[C@@](C)(OC)[C@@H](O)[C@H](C)O2)[C@H](C)[C@@H](O[C@@H]2O[C@H](C)C[C@H](N(C)C)[C@H]2O)[C@](C)(OC)C[C@@H](C)C(=O)[C@H](C)[C@@H](O)[C@]1(C)O [CLARITHROMYCIN] | 0.5 (≈ 0.668 µM) | 0.125 (≈ 0.167 µM) | > 16 | 4 (≈ 5.35 µM) | – | – | – | – | – | – | – | – | – | – | – | – | – | 0.25 (≈ 0.334 µM) | 0.125 (≈ 0.167 µM) | 4 (≈ 5.35 µM) | MIC (Streptococcus pneumoniae [18]): 0.25 µg/mL (≈ 0.334 µM)
C=CCN(C)[C@H]1C[C@@H](C)O[C@@H](O[C@@H]2[C@@H](C)[C@H](OC(=O)Cc3ccccn3)[C@@H](C)C(=O)O[C@H](CC)[C@@]3(C)OC(=O)N(CCCCn4cncc4-c4ccco4)[C@@H]3[C@@H](C)C(=O)[C@H](C)C[C@@]2(C)OC)[C@@H]1O | 0.06 (≈ 0.0633 µM) | 0.015 (≈ 0.0158 µM) | – | 0.125 (≈ 0.132 µM) | 0.5 (≈ 0.527 µM) | 2 (≈ 2.11 µM) | 1 (≈ 1.05 µM) | 1 (≈ 1.05 µM) | 1 (≈ 1.05 µM) | 1 (≈ 1.05 µM) | 0.5 (≈ 0.527 µM) | 0.25 (≈ 0.264 µM) | 0.125 (≈ 0.132 µM) | 0.125 (≈ 0.132 µM) | 0.25 (≈ 0.264 µM) | 0.25 (≈ 0.264 µM) | Active | 0.008 (≈ 0.00844 µM) | 0.015 (≈ 0.0158 µM) | 0.25 (≈ 0.264 µM) | –
C=CCN(C)[C@H]1C[C@@H](C)O[C@@H](O[C@@H]2[C@@H](C)[C@H](OC(=O)Cc3ccccn3)[C@@H](C)C(=O)O[C@H](CC)[C@@]3(C)OC(=O)N(CCCCn4cnc(-c5ccnc(N)c5)c4)[C@@H]3[C@@H](C)C(=O)[C@H](C)C[C@@]2(C)OC)[C@@H]1O | 0.06 (≈ 0.0616 µM) | 2 (≈ 2.05 µM) | – | 0.06 (≈ 0.0616 µM) | 0.125 (≈ 0.128 µM) | 1 (≈ 1.03 µM) | 0.5 (≈ 0.513 µM) | 1 (≈ 1.03 µM) | 1 (≈ 1.03 µM) | 2 (≈ 2.05 µM) | 0.125 (≈ 0.128 µM) | 0.125 (≈ 0.128 µM) | 0.03 (≈ 0.0308 µM) | 0.06 (≈ 0.0616 µM) | 0.125 (≈ 0.128 µM) | 0.06 (≈ 0.0616 µM) | Active | 0.03 (≈ 0.0308 µM) | 0.03 (≈ 0.0308 µM) | 0.125 (≈ 0.128 µM) | –

Reference: ChEMBL document CHEMBL1933046, “Synthesis and antibacterial activity of a novel series of acylides active against community acquired respiratory pathogens” (2012)
